Data as given in ChEMBL document CHEMBL1201862, “PubChem BioAssay data set” (2004).
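Protocol summary: plate cells (96-well), add compound at 5 concentrations, incubate 48 h, interpolate endpoints linearly. GI50 marks 50% less growth.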 The source made the active and inactive calls. No stated cut-off is given here; in the data, active = GI50 up to about 1.1 µM and inactive = higher.

Columns and labels:
Assay in all cases: DTP human tumour cell line panel, 48 h
[1] = tested on: NCI-H460
[2] = tested on: MDA-N
[3] = tested on: UACC-257
[4] = tested on: A549
[5] = tested on: Hs-578T
[6] = tested on: COLO 205
[7] = tested on: SNB-75
[8] = tested on: HT-29
[9] = tested on: MOLT-4
[10] = tested on: MCF7
[11] = tested on: A498
[12] = tested on: SNB-19
[13] = tested on: 786-0
[14] = tested on: SW-620
[15] = tested on: UACC-62
[16] = tested on: NCI/ADR-RES
[17] = tested on: KM12
[18] = tested on: T47D
[19] = tested on: ACHN
[20] = tested on: NCI-H23

Measured: GI50

CCOC(=O)C1Cc2c(cc3c4c(cccc24)N(C(C)=O)C3)N(C)C1 (stereo not given)
inactive: [1] > 100 µM | [2] 1.67 µM | [3] 39 µM | [4] > 100 µM | [5] 2.49 µM | [6] > 100 µM | [7] 24.2 µM | [8] > 100 µM | [9] 4.02 µM | [10] 32.7 µM | [11] > 100 µM | [12] > 100 µM | [13] 4.03 µM | [14] 4.86 µM | [15] 13.4 µM | [16] 1.64 µM | [17] 4.17 µM | [18] 5.58 µM | [19] 7.91 µM | [20] > 100 µM

O=C1Nc2ccccc2/C1=N/Nc1ccc([N+](=O)[O-])cc1[N+](=O)[O-]
inactive: [1] 7.89 µM | [2] 44.3 µM | [3] 8.49 µM | [4] 12.5 µM | [5] 6.37 µM | [6] 14.5 µM | [7] 18.7 µM | [8] 19.1 µM | [9] > 100 µM | [10] 8.67 µM | [11] 22.4 µM | [12] 19.4 µM | [13] 9.25 µM | [14] > 100 µM | [15] 20.3 µM | [16] 8.09 µM | [17] 13.6 µM | [18] 15.7 µM | [19] 7.08 µM | [20] 12.4 µM

Cc1oc2c(c1C)S(=O)(=O)C(C#N)=CN2
inactive: [1] > 100 µM | [2] > 100 µM | [3] > 100 µM | [4] > 100 µM | [5] > 100 µM | [6] > 100 µM | [7] 65.3 µM | [8] > 100 µM | [9] > 100 µM | [10] > 100 µM | [11] > 100 µM | [12] > 100 µM | [13] > 100 µM | [14] > 100 µM | [15] > 100 µM | [16] > 100 µM | [17] > 100 µM | [18] > 100 µM | [19] > 100 µM | [20] > 100 µM
